Bridge positions count the residues as written; N and C are the ends. Square brackets hold non-standard residues; d marks the D form. Peptide text beside a SMILES is read from it. R8 = C=CCCCCCC[C@@](C)(N)C(=O)O; Cba = N[C@@H](CC1CCC1)C(=O)O; S5 = C=CCCC[C@](C)(N)C(=O)O; Nle = CCCC[C@H](N)C(=O)O
Columns and labels:
HRE-bla ME-180 cells [1] = experiment: Cell proliferation assay (viability, MTT, 1% FBS); format: cell-based, human
Method: The human cervical cell line HRE-Bla ME-180 was obtained from Invitrogen. 2×10^4 ME-180 cells were plated in 96-well plates (costar) in Opti-MEM plus 1% FBS (Invitrogen). After 4 hr, cells were pretreated with chetomin, peptide or 0.5% DMSO (final concentration in media) vehicle control for 16 hr under normoxia (21% O2); then incubation continued under normoxia or hypoxia (1% O2) using a hypoxia incubator (Thermo Forma model). Viable cell numbers were quantified using CellTiter 96 Non-Radioactive Cell Proliferation kit (Promega, G4100). The results are presented in the column “Viability 1% FBS AVG (MTT V3-24 hr Normoxia) (μM)” of Table 6.

HRE-bla ME-180 cells [2] = experiment: Reporter gene assay (HRE-bla ME-180 HIF reporter, GeneBLAzer); format: cell-based, human; settings: for EC50: 24 hour normoxia
Summary of the method: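 A FRET β-lactamase readout of HIF transcription was used. After compound treatment in 0.3% DMSO/media under normoxic conditions, 20 μl of 6× LiveBLAzer-FRET B/G (CCF4-AM) substrate was added. Plates sat 3 hr at room temperature in the dark and were read at 409 Ex/460Em and 409Ex/530Em on a Synergy 2. Inhibition was compared against DMSO vehicle controls, with chetomin as positive control.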

[3] = target: T1, flag-tagged HIF1α (AA 786-826) / His6-tagged p300 (AA 323-423) complex (Homo sapiens, UniProt Q09472); experiment: HIF1α p300 displacement assay (TR FRET, +CHAPS); format: binding; settings: read-out: IC50 (nM) (HIF1α_p300 Displacement + CHAPS)
T1 construct: His6-tagged p300 (AA 323-423); made in house; host or cells: E. coli (pETDuet vector)
Summary of the method: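 The co-expressed flag-HIF1α (786-826)/His6-p300 (323-423) complex, purified from E. coli with 0.1 mM ZnSO4, was used at 300 nM final with competitor peptides for 1 h at room temperature. Buffer was 150 mM NaCl, 20 mM HEPES pH 7.4, 7.5 mM CHAPS and 1 mM DTT. Anti-Flag-K (0.5 μM) and anti-His-D2 (4 nM) were then added for 2 h, and IC50s were fitted from the TR-FRET ratio.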

| SMILES | EC50 (HRE-bla ME-180 cells [2]) [µM] | IC50 [3] [nM] | Viability 1% FBS AVG (MTT V3-24 hr Normoxia) (μM) (HRE-bla ME-180 cells [1]) | 18 h Avg % max inhibition at top conc (HIF Rptr-24 hrs normoxia) (μM) (HRE-bla ME-180 cells [2]) |
| --- | --- | --- | --- | --- |
| CCCC[C@H](NC(=O)[C@H](C)NC(=O)[C@@H](NC(=O)[C@@H](NC(=O)[C@H](CC(C)C)NC(=O)[C@]1(C)CCCC=CCCC[C@](C)(NC(=O)[C@H](CCC(=O)O)NC(=O)[C@H](CC(=O)O)NC(=O)[C@@H](NC(=O)[C@H](Cc2ccccc2)NC(C)=O)[C@@H](C)CC)C(=O)N[C@@H](C(C)C)C(=O)N[C@@H](CC(C)C)C(=O)N[C@@H](CCCC)C(=O)N1)C(C)C)[C@@H](C)CC)C(=O)N[C@@H](C)C(=O)N[C@@H](CC(C)C)C(=O)N[C@@H](CO)C(=O)N[C@@H](CO)C(=O)N[C@H](C(N)=O)[C@@H](C)CC [SP-129] (Ac-FIDE[S5]VL[Nle][S5]LVIA[Nle]ALSSI-NH2; staple 5-9) | > 30 |  | ++++ (≥30: ++++) | ++ (≤10 but <25: ++) |
| CCCC[C@H](NC(=O)[C@H](CCC(=O)O)NC(=O)[C@@H](NC(=O)[C@@H](NC(=O)[C@H](CC(C)C)NC(=O)[C@]1(C)CCCC=CCCC[C@](C)(NC(=O)[C@H](CCC(=O)O)NC(=O)[C@H](CC(=O)O)NC(=O)[C@@H](NC(=O)[C@H](Cc2ccccc2)NC(C)=O)[C@@H](C)CC)C(=O)N[C@@H](C(C)C)C(=O)N[C@@H](CC(C)C)C(=O)N[C@@H](CCSC)C(=O)N1)C(C)C)[C@@H](C)CC)C(=O)N[C@@H](C)C(=O)N[C@@H](CC(C)C)C(=O)N[C@@H](CC(=O)O)C(=O)N[C@@H](CCCNC(=N)N)C(=O)N[C@H](C(N)=O)[C@@H](C)CC [SP-119] (Ac-FIDE[S5]VLM[S5]LVIE[Nle]ALDRI-NH2; staple 5-9) | > 30 |  | ++++ (≥30: ++++) | +++ (≤25 but <50: +++) |
| CCCC[C@H](NC(=O)[C@H](CC(C)C)NC(=O)[C@@H](NC(=O)[C@H](CCC(=O)O)NC(=O)[C@H](CCC(=O)O)NC(=O)[C@H](CC(=O)O)NC(=O)[C@@H](NC(=O)[C@H](Cc1ccccc1)NC(C)=O)[C@@H](C)CC)C(C)C)C(=O)N[C@@]1(C)CCCC=CCCC[C@@](C)(C(=O)N[C@@H](CCCC)C(=O)N[C@@H](C)C(=O)N[C@@H](CC(C)C)C(N)=O)NC(=O)[C@H]([C@@H](C)CC)NC(=O)[C@H](C(C)C)NC(=O)[C@H](CC(C)C)NC1=O [SP-8] (Ac-FIDEEVL[Nle][S5]LVI[S5][Nle]AL-NH2; staple 9-13) |  |  | ++++ (≥30: ++++) |  |
| CC[C@H](C)[C@H](NC(=O)[C@H](Cc1ccccc1)NC(C)=O)C(=O)N[C@@H](CC(=O)O)C(=O)N[C@@H](CCC(=O)O)C(=O)N[C@@]1(C)CCCC=CCCC[C@@](C)(C(=O)N[C@@H](CC(C)C)C(=O)N[C@H](C(=O)N[C@H](C(=O)N[C@@H](CCC(=O)O)C(=O)N[C@@H](CCSC)C(=O)N[C@@H](C)C(=O)N[C@@H](CC(C)C)C(=O)N[C@@H](CC(=O)O)C(=O)N[C@@H](CCCNC(=N)N)C(=O)N[C@H](C(=O)N[C@@H](CCCCN)C(=O)N[C@@H](CCC(=O)O)C(=O)N[C@@H](CC(C)C)C(=O)N2CCC[C@H]2C(=O)N[C@@H](CCC(=O)O)C(=O)N[C@@H](CC(C)C)C(=O)N[C@@H](Cc2c[nH]c3ccccc23)C(=O)N[C@@H](CC(C)C)C(N)=O)[C@@H](C)CC)[C@@H](C)CC)C(C)C)NC(=O)[C@H](CCSC)NC(=O)[C@H](CC(C)C)NC(=O)[C@H](C(C)C)NC1=O [SP-107] (Ac-FIDE[S5]VLM[S5]LVIEMALDRIKELPELWL-NH2; staple 5-9) | > 30 | ≤ 200 |  |  |
| CCCC[C@H](NC(=O)[C@H](C)NC(=O)[C@@H](NC(=O)[C@@H](NC(=O)[C@H](CC(C)C)NC(=O)[C@]1(C)CCCC=CCCC[C@](C)(NC(=O)[C@H](CCC(=O)O)NC(=O)[C@H](C)NC(=O)[C@@H](NC(=O)[C@H](Cc2ccccc2)NC(C)=O)[C@@H](C)CC)C(=O)N[C@@H](C(C)C)C(=O)N[C@@H](CC(C)C)C(=O)N[C@@H](CCCC)C(=O)N1)C(C)C)[C@@H](C)CC)C(=O)N[C@@H](C)C(=O)N[C@@H](CC(C)C)C(=O)N[C@@H](CC(=O)O)C(=O)N[C@@H](C)C(=O)N[C@H](C(N)=O)[C@@H](C)CC [SP-121] (Ac-FIAE[S5]VL[Nle][S5]LVIA[Nle]ALDAI-NH2; staple 5-9) | > 30 | 400 to 700 |  |  |
| CCCC[C@H](NC(=O)[C@H](C)NC(=O)[C@H](C)NC(=O)[C@H](CCCC)NC(=O)[C@H](C)NC(=O)[C@H](CCCC)NC(=O)[C@H](CC(C)C)NC(=O)[C@@H](NC(=O)[C@@H](NC(=O)[C@H](CC(C)C)NC(=O)[C@]1(C)CCCC=CCCC[C@](C)(NC(=O)[C@H](CCC(=O)O)NC(=O)[C@H](CC(=O)O)NC(=O)[C@@H](NC(=O)[C@H](Cc2ccccc2)NC(C)=O)[C@@H](C)CC)C(=O)N[C@@H](C(C)C)C(=O)N[C@@H](CC(C)C)C(=O)N[C@@H](CCCC)C(=O)N1)C(C)C)[C@@H](C)CC)C(N)=O [SP-126] (Ac-FIDE[S5]VL[Nle][S5]LVIL[Nle]A[Nle]AA[Nle]-NH2; staple 5-9) | 15 to 30 | 200 to 400 |  | ++++ (≥50: ++++) |

More lines, main results first:

| EC50 (HRE-bla ME-180 cells [2]) [µM] | IC50 [3] [nM] | SMILES | Viability 1% FBS AVG (MTT V3-24 hr Normoxia) (μM) (HRE-bla ME-180 cells [1]) | 18 h Avg % max inhibition at top conc (HIF Rptr-24 hrs normoxia) (μM) (HRE-bla ME-180 cells [2]) |
| --- | --- | --- | --- | --- |
| > 30 |  | CCCC[C@H](NC(=O)[C@H](CCC(=O)O)NC(=O)[C@@H](NC(=O)[C@@H](NC(=O)[C@H](CC(C)C)NC(=O)[C@]1(C)CCCC=CCCC[C@](C)(NC(=O)[C@H](CCC(=O)O)NC(=O)[C@H](CC(=O)O)NC(=O)[C@@H](NC(=O)[C@H](Cc2ccccc2)NC(C)=O)[C@@H](C)CC)C(=O)N[C@@H](CO)C(=O)N[C@@H](CC(C)C)C(=O)N[C@@H](CCCC)C(=O)N1)C(C)C)[C@@H](C)CC)C(=O)N[C@@H](C)C(=O)N[C@@H](CC(C)C)C(N)=O [SP-140] (Ac-FIDE[S5]SL[Nle][S5]LVIE[Nle]AL-NH2; staple 5-9) | +++ (≤15 but <30: +++) | +++ (≤25 but <50: +++) |
| 5 to 15 |  | CCCC[C@H](NC(=O)[C@]1(C)CCCC=CCCC[C@](C)(NC(=O)[C@H](CCCC)NC(=O)[C@H](CC(C)C)NC(=O)[C@@H](NC(=O)[C@H](CCC(=O)O)NC(=O)[C@H](CCC(=O)O)NC(=O)[C@H](CC(=O)O)NC(=O)[C@@H](NC(=O)[C@H](CC(N)=O)NC(=O)[C@@H](NC(=O)[C@]2(C)CCCC=CCCCCCC[C@@](C)(NC(=O)[C@H](CCC(=O)O)NC(=O)[C@H](C)NC(=O)[C@H](CCC(N)=O)NC(=O)[C@H](CC(C)C)NC(=O)[C@H](CC(C)C)NC(C)=O)C(=O)N[C@@H](CC(C)C)C(=O)N[C@@H](CC(C)C)C(=O)N[C@@H](CCCNC(=N)N)C(=O)N[C@@H](C)C(=O)N[C@@H](CC(C)C)C(=O)N[C@@H](CC(=O)O)C(=O)N2)C(C)C)[C@@H](C)CC)C(C)C)C(=O)N[C@@H](CC(C)C)C(=O)N[C@@H](C(C)C)C(=O)N[C@@H]([C@@H](C)CC)C(=O)N1)C(N)=O [SP-350] (Ac-LLQAE[R8]LLRALD[S5]VNIDEEVL[Nle][S5]LVI[S5][Nle]-NH2; staple 6-13, 23-27) | ++++ (≥30: ++++) | +++ (≤25 but <50: +++) |
| > 30 | > 700 | CC[C@H](C)[C@H](NC(=O)[C@H](Cc1ccccc1)NC(C)=O)C(=O)N[C@@H](CC(=O)O)C(=O)N[C@@H](CCC(=O)O)C(=O)N[C@@H](CCC(=O)O)C(=O)N[C@H](C(=O)N[C@@H](CC(C)C)C(=O)N[C@@H](CCSC)C(=O)N[C@@]1(C)CCCC=CCCC[C@@](C)(C(=O)N[C@@H](CCSC)C(=O)N[C@@H](C)C(=O)N[C@@H](CC2CCC2)C(N)=O)NC(=O)[C@H]([C@@H](C)CC)NC(=O)[C@H](C(C)C)NC(=O)[C@H](CC(C)C)NC1=O)C(C)C [SP-237] (Ac-FIDEEVLM[S5]LVI[S5]MA[Cba]-NH2; staple 9-13) |  | +++ (≤25 but <50: +++) |
| > 30 | > 700 | CCCC[C@@H]1NC(=O)[C@H](CC(C)C)NC(=O)[C@H](C(C)C)NC(=O)[C@@](C)(NC(=O)[C@H](CCC(=O)O)NC(=O)[C@H](CC(=O)O)NC(=O)[C@@H](NC(=O)[C@H](Cc2ccccc2)NC(C)=O)[C@@H](C)CC)CCCC=CCCCC2(CCCC=CCCC[C@](C)(C(=O)N[C@@H](CCCC)C(=O)N[C@@H](C)C(=O)N[C@@H](CC(C)C)C(N)=O)NC(=O)[C@H]([C@@H](C)CC)NC(=O)[C@H](C(C)C)NC(=O)[C@H](CCCNC(=N)N)NC2=O)NC1=O (some centres unmarked) [SP-209] |  | ++ (≤10 but <25: ++) |
| > 30 | 400 to 700 | CC[C@H](C)[C@H](NC(=O)[C@H](Cc1ccccc1)NC(C)=O)C(=O)N[C@@H](CC(N)=O)C(=O)N[C@@H](CCC(=O)O)C(=O)N[C@@H](CCC(=O)O)C(=O)N[C@H](C(=O)N[C@@H](CC(C)C)C(=O)N[C@@H](CCSC)C(=O)N[C@@]1(C)CCCC=CCCC[C@@](C)(C(=O)N[C@@H](CCSC)C(=O)N[C@@H](C)C(=O)N[C@@H](CC(C)C)C(N)=O)NC(=O)[C@H]([C@@H](C)CC)NC(=O)[C@H](C(C)C)NC(=O)[C@H](CC(C)C)NC1=O)C(C)C [SP-232] (Ac-FINEEVLM[S5]LVI[S5]MAL-NH2; staple 9-13) |  | ++ (≤10 but <25: ++) |

Reference: patent publication US20190225650A1, “PEPTIDOMIMETIC MACROCYCLES AND USE THEREOF IN REGULATING HIF1ALPHA” (AILERON THERAPEUTICS, INC., priority 2013, published 2019)
